Test results taken from patent publication US9662303B2, “Composition and method for treating cancer” (PG-Pharma, LLC, priority 2006, dated 2017).
Read-outs that look alike come from different tables or passages of the source.

Tests used:
IPC-melanoma = settings: ref (9), cited from earlier work
cadherin-5 = settings: human SH-SY5YTRK-A neuroblastoma cells pre-treated with NgF; ref (11); cited from earlier work
MCF-7 mammary carcinoma = settings: cited from earlier work
[1] = biological target: mitogen-activated protein kinases phosphatase 1 (MKP-1) (Homo sapiens, UniProt P28562); settings: in vitro; ref (12); cited from earlier work
Sequence of mitogen-activated protein kinases phosphatase 1 (MKP-1) (P28562 whole entry, species assumed): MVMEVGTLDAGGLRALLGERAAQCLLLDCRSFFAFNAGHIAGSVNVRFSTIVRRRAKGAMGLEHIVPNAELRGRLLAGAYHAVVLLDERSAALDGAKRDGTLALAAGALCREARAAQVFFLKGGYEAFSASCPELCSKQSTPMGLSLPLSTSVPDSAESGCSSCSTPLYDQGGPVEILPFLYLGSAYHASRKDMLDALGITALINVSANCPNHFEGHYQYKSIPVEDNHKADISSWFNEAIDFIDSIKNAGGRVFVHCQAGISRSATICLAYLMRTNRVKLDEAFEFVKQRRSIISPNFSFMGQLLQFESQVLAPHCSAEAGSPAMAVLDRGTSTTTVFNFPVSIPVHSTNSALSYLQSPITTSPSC

A549 = settings: ref (9); cited from earlier work
Peyer's patches = experiment: Effect on Peyer's patches; settings: in vivo
Source text: The manipulation of various homing factors e.g. L-selectin-mAb LM1-3 and addressin-mAdCAM-1 and integrins such as alpha4beta7 as therapeutic targets on Peyer's patches dendritic cells is a rapidly expanding field in drug development against intestinal bowel diseases (IBD) e.g. colitis, colorectal carcinoma and Chrohn's disease (20;21). DTS caused an enlargement in Peyer's patches possible by an activation of cell proliferation. Thus, based on this finding we hereby proposed that the effect of DTS on the Peyer's patches should be elucidated with the hope of developing drugs against IBD.

[2] = biological target: T1, Bovine Serum Albumin (BSA) (Bos taurus, UniProt P02769); settings: personal communication; cited from earlier work
T1 sequence (P02769 25-607): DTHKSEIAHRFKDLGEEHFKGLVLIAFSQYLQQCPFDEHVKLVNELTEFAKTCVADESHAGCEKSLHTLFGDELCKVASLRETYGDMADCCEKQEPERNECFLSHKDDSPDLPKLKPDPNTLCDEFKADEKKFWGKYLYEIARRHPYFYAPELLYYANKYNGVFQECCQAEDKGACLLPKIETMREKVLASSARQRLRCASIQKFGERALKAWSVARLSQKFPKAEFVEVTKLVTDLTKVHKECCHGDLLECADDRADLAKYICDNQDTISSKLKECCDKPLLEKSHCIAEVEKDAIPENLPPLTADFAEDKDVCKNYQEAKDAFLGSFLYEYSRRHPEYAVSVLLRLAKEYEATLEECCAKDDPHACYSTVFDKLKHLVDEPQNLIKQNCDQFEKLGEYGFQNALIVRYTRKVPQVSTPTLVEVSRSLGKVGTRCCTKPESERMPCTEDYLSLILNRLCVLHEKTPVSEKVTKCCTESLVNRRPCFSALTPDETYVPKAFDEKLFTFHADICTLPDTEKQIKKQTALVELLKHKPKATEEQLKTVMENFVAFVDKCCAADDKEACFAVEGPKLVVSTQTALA

[3] = test system: Erythrocytes (red blood cells, RBCs); settings: RBCs separated from WBCs, in buffer, concentrations higher than those effective on cancer cells; refs (11;32); cited from earlier work
Th-1 and Th-2 cytokines = settings: Human Mixed Lymphocytes Responses, CD3 dependent activation, cited from earlier work
Jurkat leukaemia = settings: ref (10); cited from earlier work
[4] = test system: A637 primary bladder carcinoma; settings: ref (9); cited from earlier work
[5] = test system: non-small cell lung cancer H460; settings: ref (10); cited from earlier work
SH-SY5Y neuroblastoma = settings: cited from earlier work
bone marrow = settings: cited from earlier work
fibrosarcoma HT1080 = settings: ref (10); cited from earlier work
Starfish embryos = settings: ref (11); cited from earlier work
[6] = test system: human TE-671 sarcoma cell line; settings: 0.56 μM, ref (9); cited from earlier work
[7] = Spectrophotometric absorbance binding experiments on pure tyrosine and phenylalanine; settings: room temperature
Source text: Here is an outline of these experiments:
1. A plot of Absorbance (nm) with time (mins) of the interaction with tyrosine and DTS gives a normal distribution (Gaussian) with the highest optimum at room temperature.
2. As temperature is increased there is a lowering of the optimum on the graph until a straight line is created.
4. Phenylalanine, which is an aromatic amino acid, gives a straight line at room temperature with DTS, while DTS and tyrosine give a Gaussian distribution; the height of the curve is a function of the ratio of the DTS used.

adenocarcinoma HeLa = settings: ref (10); cited from earlier work
mice = experiment: Toxicity to mice; assay type: in vivo; settings: up to 30 mg/kg body weight
Experimental: In addition, concentration of up to 30 mg/kg body weigh was not toxic to mice. DTS seems to activate the bone marrow at 10 mg/kg body weight since granulocytes differential count was increased by 50% (5).

[8] = test system: human SH-SY5Y neuroblatsoma cells; experiment: Anti-proliferation/cytotoxic activity of DTS and DTS-BSA complex on SH-SY5Y cells; assay type: cell-based; settings: for Percentage anti-proliferation activity: SH-SY5Y
Source text: 3. […] 4. […] See Williams et al., (2004) West Indian Medical Journal 53 (4) pp. 208-219 for the preparation of cell culture medium and assessment of anti-proliferation/cytotoxic activity on the human SH-SY5Y neuroblatsoma cells (12); the previous reference is hereby incorporated by reference in its entirety. A summary of the results from an experiment involving the above synthesis method were as follows: […]

ovarian OVCAR4 = settings: ref (10); cited from earlier work
ovarian A2780 = settings: ref (10); cited from earlier work
breast M231 = settings: ref (10); cited from earlier work
thymus = settings: old mice; refs (5;11); cited from earlier work
[9] = biological target: T1, Bovine Serum Albumin (BSA); settings: 500 ng/mL (0.5 μg/mL), pH 6.0; ref (11); cited from earlier work
immune system = experiment: Stimulation of the immune system in mice; assay type: in vivo; settings: 11 mg/kg body weight
Experimental: The DTS-albumin formulation of the present invention can also be administered to a patient with a formulation dosage that is predetermined based upon data specific to that patient. For example, weight, metabolic factors, genetic factors, etc. can contribute to varying predetermined dosage amounts that are used to prescribe the specific predetermined dosage to the patient. Preferably the formulation dosage is between about 0.023 mg/kg and about 2.3 mg/kg body weight. […] The DTS-BSA complex was active at 0.5 ng/mL in vitro dose, a ratio of about 480. Thus, 11 divided by 480 is about 0.023 mg/Kg body weight (minimum). Similarly, the maximum is about 2.3 mg/Kg body weight. If we assumed that the maximum weigh of a human to be treated with the ATS-albumin complex Is 70 Kg, then the upper limit would be […]=1.61 mg/70 kg body weight.

[10] = test system: human fibroblast (HOFA) cell line; settings: over seven days; ref (9); cited from earlier work
[11] = test system: MAPKinase (erk 1 and erk 2); settings: induced by basic fibroblast growth factor (bFGF); 1.0 μM; refs (7;11); cited from earlier work

With `c1ccc(CSSSCc2ccccc2)cc1` [DTS, dibenzyl trisulphide] as the compound, how does the “nuclear morphology (mitotic catastrophe)” value (IPC-melanoma; IPC-melanoma cells exposed to 1.0 μM) read?
Its value is “nuclear fragmentation”.

And the IC50 (IPC-melanoma; IPC-melanoma)?
The IC50 was 2.9 µM.

And the “expression of cadherin-5” value (cadherin-5)?
The value was “up-regulate”.

What about the IC50 (MCF-7 mammary carcinoma; ref (9)) of the same compound?
Its IC50 is 2.24 µM.

What about the IC50 (MCF-7 mammary carcinoma; ref (10)) of the same compound?
The IC50 was 6.6 µM.

And the “binding of MKP-1 to its substrate OMFP” value [1]?
Its value is “enhance”.

What about the IC50 (A549) of the same compound?
The IC50 was 15.8 µM.

What about the “Peyer's patches size” value (Peyer's patches) of the same compound?
Its value is “enlargement”.

What about the “binding of glucose to BSA” value [2] of the same compound?
The value was “inhibit”.

And the effect on erythrocytes [3]?
The effect on erythrocytes was “cell-cell attraction with morphological changes without lysis”.

What about the “Th-2 cytokines such as IL-4” value (Th-1 and Th-2 cytokines) of the same compound?
Its value is “up-regulated”.

What about the Th-1 cytokines (Th-1 and Th-2 cytokines; ref (11)) of the same compound?
Its Th-1 cytokines is “down regulates”.

And the IC50 (Jurkat leukaemia)?
Its IC50 is 0.35 µM.

And the IC50 [4]?
Its IC50 is 18.8 µM.

What about the IC50 [5] of the same compound?
The IC50 was 5.1 µM.

And the “enhancement of cytotoxic action by complexing DTS to Bovine Serum Albumin” value (SH-SY5Y neuroblastoma; SH-SY5Y in vitro, refs (11;12))?
Its value is 70 fold.

What about the IC50 (SH-SY5Y neuroblastoma; SH-SY5Y neuroblastoma, ref (9)) of the same compound?
Its IC50 is 0.43 µM.

And the “increase of granulocytes differential count” value (bone marrow; 10 mg/kg body weight, ref (5))?
Its value is 50%.

And the “production of granulocytes and erythrocytes” value (bone marrow; refs (5;11))?
The value was “increased”.

And the IC50 (fibrosarcoma HT1080)?
Its IC50 is 1.9 µM.

And the “effect on protein biosynthesis” value (Starfish embryos)?
The value was “did not have any effect”.

What about the anti-proliferation/cytotoxic activity [6] of the same compound?
Its anti-proliferation/cytotoxic activity is 44.67%.

And the “binding to aromatic amino acids (absorbance)” value [7]?
Its value is “binds only to tyrosine”.

And the IC50 (adenocarcinoma HeLa)?
The IC50 was 2.5 µM.

What about the toxicity to mice (mice) of the same compound?
Its toxicity to mice is “not toxic”.

And the “effective in vitro dose” value ([8]; DTS alone, in vitro, cell system not stated)?
Its value is 240 ng/mL.

And the Percentage anti-proliferation activity ([8]; DTS at 39 ng/mL (No BSA))?
The Percentage anti-proliferation activity was 1.68%.

And the Percentage anti-proliferation activity ([8]; DTS at 78 ng/mL (No BSA))?
Its Percentage anti-proliferation activity is 38.22%.

What about the Percentage anti-proliferation activity ([8]; DTS at 1.25 μg/mL (No BSA)) of the same compound?
The Percentage anti-proliferation activity was 93.00%.

What about the IC50 (ovarian OVCAR4) of the same compound?
Its IC50 is 1.4 µM.

What about the IC50 (ovarian A2780) of the same compound?
The IC50 was 0.4 µM.

And the IC50 (breast M231)?
Its IC50 is 2.4 µM.

What about the thymic weight (thymus) of the same compound?
Its thymic weight is “increase”.

And the “protection of BSA from denaturation” value [9]?
Its value is 50.83%.

What about the “effect on the immune system” value (immune system) of the same compound?
Its value is “stimulated the immune system”.

What about the “toxicity to human fibroblast (HOFA) cell line” value [10] of the same compound?
The value was “not to be toxic”.

And the “hyperphosphorylation of MAPKinase (erk 1 and erk 2) signalling” value [11]?
Its value is 30%.
